According to patent US9696323B2, “Biomarkers for chagas disease related cardiomyopathy” (THE BOARD OF REGENTS OF THE UNIVERSITY OF TEXAS SYSTEM, priority 2013, dated 2017):

Test system: T. cruzi
Assay: 2D-GE plasma proteome profile (differential protein expression) of T. cruzi-infected rats treated with PBN and/or BZ
Assay type: in vivo, rat
Details: plasma
Excerpt: Certain embodiments include biomarkers identified in a previous study. Parasite persistence and oxidative damage in the heart are known to be of pathological significance during Chagas disease (Zacks et al., (2005) An Acad Bras Cienc, 77, 695-715; Gupta et al., (2009) Interdiscip Perspect Infect Dis, 2009, 190354). […] In the previous study the inventors identified 92 proteins that were differentially expressed or oxidized in chagasic plasma. Functional analysis allocated a majority of these proteins to inflammation/immunity and lipid metabolism categories, and to molecular pathways associated with cardiovascular dysfunction, e.g., myocardial infarction, hypertrophy, and fibrosis, and pulmonary embolism and hypertension. Some proteins in chagasic rats treated with PBN and/or BZ were allocated to curative pathways (immune regulation and cardiac remodeling). The 2D-GE results were validated by Western blotting. […] Increased plasma levels of GSN, MYL2, and VIM were directly correlated with the severity of cardiac disease in human chagasic patients. […] These findings have utility in diagnosing disease severity and designing suitable therapy for management of human chagasic patients.
Ingenuity Pathway Analysis (IPA) is a highly curated and comprehensive software used for the integration of proteins into networks and pathways with biological meaning (Thomas and Bonchev, (2010). Hum Genomics, 4, 353-360). Network analysis of the plasma proteome profile of chagasic rats identified four major sub-networks linked to host response to T. cruzi infection and disease development (Table V). The maximal numbers of the differentially expressed plasma proteins (19 proteins) in chagasic rats were associated with antigen presentation and inflammatory response category (Table V) and indicators of persistent inflammation, known to be of pathological significance in Chagas disease (Dhiman et al., (2009) Clinical and Vaccine Immunology, 16, 660-666; Tanowitz et al., (2009) Prog Cardiovasc Dis, 51, 524-539; Junqueira et al., (2010) Expert Rev Mol Med, 12, e29). Following functional analysis of the inflammation-associated proteins, 12 proteins (APOA1, APOE, C3, CFB, CFH, FGB, GSN, KRT10, PLG, SCG2, SERPINA1, and SERPINC1) were identified as being involved in immune cell trafficking and cell movement of leukocytes, granulocytes, phagocytes, neutrophils, and dendritic and antigen presenting cells. Some of the differentially expressed proteins in inflammation category were associated with activation (APOE, C3, CFH, GC and PLG), chemotaxis (C3, SCG2, SERPINA1, SERPINC1), and infiltration of leukocytes (APOA1, APOE, C3, PLG, KRT10) and neutrophils (C3, CFB, CFH, PLG). Up regulation of APOE, APOA1, APOH, GC and PLG in chagasic plasma was indicative of activation, binding and accumulation of macrophages in the disease state. Of the 19 differentially expressed inflammation-associated proteins, 11 proteins (APOE, C3, CFB, CFH, GSN, KRT10, SCG2, SERPINA1, SERPINC1, GC, and PLG) were carbonylated in chagasic plasma. […] Other proteins (APOE, C3, KRT3, and SCG2) were exposed to oxidation due to T. cruzi-induced, acute oxidative stress, but were normalized in expression and oxidation during the chronic phase.
Seventeen of the differentially expressed proteins in chagasic plasma, i.e., AFM, C4BPA, CACNA1D, DLGAP2, GC, KNG1, MUG1, MYLPF, MY05A, MY05B, PRPH, PZP, RAI14, and SCG2, were allotted to the lipid metabolism/molecular transport/small molecule biochemistry category (Table V) and functionally linked by IPA network analysis to lipid, fatty acid, and carbohydrate metabolism. A majority of the proteins in this category, i.e., ALB, APOA1, APOA4, APOE, APOH, C3, GC, GNAQ, MY05A, PLG, SCD2, SERPINA1, SERPINC1 and VIM, were linked to the synthesis, metabolism, transport, and modification of lipids and fatty acids, and to uptake and release or efflux of lipids, eicosanoids, and cholesterol. […]

[1] = RCP/RCB/RCPB groups (chronic infection)

## CC(C)(C)/[N+]([O-])=C/c1ccccc1 [PBN]
RAP group (acute infection)
  Spot# 979 Average Normalized Density × 100,000: 59.46
  Spot# 992 Average Normalized Density × 100,000: 34.51
[1]
  Spot# 12, 180 Average Normalized Density × 100,000: 7.22
  Spot# 34 Average Normalized Density × 100,000: 0.45
  Spot# 37, 593 Average Normalized Density × 100,000: 6.48
  Spot# 49, 673 Average Normalized Density × 100,000: 13.39
  Spot# 52, 54, 302 Average Normalized Density × 100,000: 14.45
  Spot# 53, 225 Average Normalized Density × 100,000: 15.12
  Spot# 72 Average Normalized Density × 100,000: 16.43
  Spot# 73, 705, 787 Average Normalized Density × 100,000: 38.67
  Spot# 77 Average Normalized Density × 100,000: 8.675
  Spot# 88 Average Normalized Density × 100,000: 40.49
  Spot# 94 Average Normalized Density × 100,000: 2.55
  Spot# 115, 123 Average Normalized Density × 100,000: 10.96
  Spot# 149 Average Normalized Density × 100,000: 4.39
  Spot# 153 Average Normalized Density × 100,000: 10.34
  Spot# 177 Average Normalized Density × 100,000: 1.60
  Spot# 181 Average Normalized Density × 100,000: 1.90
  Spot# 184, 257, 328 Average Normalized Density × 100,000: 5.85
  Spot# 207, 555 Average Normalized Density × 100,000: 9.12
  Spot# 215 Average Normalized Density × 100,000: 1.97
  Spot# 266 Average Normalized Density × 100,000: 0.54
  Spot# 299 Average Normalized Density × 100,000: 1.17
  Spot# 315 Average Normalized Density × 100,000: 8.23
  Spot# 334 Average Normalized Density × 100,000: 0.71
  Spot# 341 Average Normalized Density × 100,000: 1.10
  Spot# 355, 359 Average Normalized Density × 100,000: 2.20
  Spot# 382, 385, 378, 572, 578, 595 Average Normalized Density × 100,000: 3.29
  Spot# 389 Average Normalized Density × 100,000: 4.32
  Spot# 430 Average Normalized Density × 100,000: 8.21
  Spot# 434, 678 Average Normalized Density × 100,000: 24.63
  Spot# 439 Average Normalized Density × 100,000: 14.99
  Spot# 452 Average Normalized Density × 100,000: 10.01
  Spot# 464 Average Normalized Density × 100,000: 6.65
  Spot# 479 Average Normalized Density × 100,000: 32.56
  Spot# 493 Average Normalized Density × 100,000: 13.46
  Spot# 515 Average Normalized Density × 100,000: 7.78
  Spot# 524 Average Normalized Density × 100,000: 21.96
  Spot# 551, 587, 908 Average Normalized Density × 100,000: 54.1
  Spot# 559 Average Normalized Density × 100,000: 27.58
  Spot# 571 Average Normalized Density × 100,000: 38.63
  Spot# 576, 620 Average Normalized Density × 100,000: 16.66
  Spot# 586, 614 Average Normalized Density × 100,000: 38.00
  Spot# 592 Average Normalized Density × 100,000: 31.55
  Spot# 604 Average Normalized Density × 100,000: 23.66
  Spot# 606 Average Normalized Density × 100,000: 5.58
  Spot# 627 Average Normalized Density × 100,000: 54.85
  Spot# 638 Average Normalized Density × 100,000: 5.92
  Spot# 649 Average Normalized Density × 100,000: 37.11
  Spot# 651 Average Normalized Density × 100,000: 57.85
  Spot# 655 Average Normalized Density × 100,000: 149.20
  Spot# 672 Average Normalized Density × 100,000: 17.65
  Spot# 676 Average Normalized Density × 100,000: 42.59
  Spot# 691 Average Normalized Density × 100,000: 16.29
  Spot# 715 Average Normalized Density × 100,000: 32.20
  Spot# 724 Average Normalized Density × 100,000: 2.23
  Spot# 728 Average Normalized Density × 100,000: 1.13
  Spot# 733 Average Normalized Density × 100,000: 2.44
  Spot# 740 Average Normalized Density × 100,000: 7.33
  Spot# 745 Average Normalized Density × 100,000: 3.21
  Spot# 749 Average Normalized Density × 100,000: 1.70
  Spot# 766 Average Normalized Density × 100,000: 6.32
  Spot# 779, 909 Average Normalized Density × 100,000: 6.88
  Spot# 796 Average Normalized Density × 100,000: 8.33
  Spot# 814 Average Normalized Density × 100,000: 1.56
  Spot# 817 Average Normalized Density × 100,000: 29.59
  Spot# 820, 1081 Average Normalized Density × 100,000: 2.20
  Spot# 827 Average Normalized Density × 100,000: 17.80
  Spot# 832 Average Normalized Density × 100,000: 7.55
  Spot# 860 Average Normalized Density × 100,000: 5.79
  Spot# 867 Average Normalized Density × 100,000: 3.00
  Spot# 881 Average Normalized Density × 100,000: 6.68
  Spot# 897 Average Normalized Density × 100,000: 31.94
  Spot# 900 Average Normalized Density × 100,000: 44.00
  Spot# 906 Average Normalized Density × 100,000: 87.74
  Spot# 966 Average Normalized Density × 100,000: 59.29
  Spot# 979 Average Normalized Density × 100,000: 41.38
  Spot# 992 Average Normalized Density × 100,000: 57.94
